# Laboratory results published in publication PMC11477000, “Enantioselective Binding of Proton Pump Inhibitors to Alpha1-Acid Glycoprotein and Human Serum Albumin—A Chromatographic, Spectroscopic, and In Silico Study” (International Journal of Molecular Sciences, 2024).
# Where “and” joins values, the source holds several entries; their conditions need not be identical. Equal entries are not always repeated. Where two headings read alike, the source gives them in different places.
# Tests used:
# [1] = molecular target: human serum albumin (HSA) (Homo sapiens, UniProt P02768); assay: Bound percentage by HPLC on HSA column, extrapolation to zero organic modifier; type: in vitro ADME; details: for Bound percentage (b%), average: average of IPA, EtOH, MeOH
# Method: Chromatographic columns containing proteins can be used to determine the percentage of drug binding. A plot of the natural logarithm of the retention factors against the proportion of organic modifiers was created. […] The intercept of these linear equations can be used to calculate the bound percentage according to Equation (4) (see in Section 3.2).
# Chromatographic measurements were carried out on two separate HPLC systems. The AGP binding study was performed on a Waters 2695e chromatographic system paired with a Waters 2996 PDA detector, controlled by Empower 3 FR5 (Waters Corp., Milford, MA, USA), while the HSA binding study was performed on an Agilent 1100 HPLC system, consisting of an inline degasser (G1322A), a quaternary pump (G1311A), an automatic injector (G1329A) paired with sample thermostat (G1330A), a column thermostat (G1316A), and a diode array detector (G1315A) with Agilent Chemstation B04.03-SP2 software (Agilent, Bronnwald, Germany). For the binding studies, two protein-based chiral stationary phases were utilized. The chromatographic binding study for AGP was conducted on a ChromTech Chiral-AGP column (150 mm × 4.0 mm; ChromTech Ltd., Congleton, UK), while the binding study for HSA was performed on a Daicel Chiralpak HSA column (50 mm × 4.0 mm; Daicel Corp., Osaka, Japan). The detection wavelength was 210 nm for all measurements. The stock solutions of PPIs were prepared at a concentration of 1 mg/mL in MeOH. Subsequent dilutions were prepared using water. The injected samples were mixed and diluted from the stock solutions. The final concentration for the eutomer was 0.2 mg/mL, and for the distomer, it was 0.1 mg/mL. A volume of 2 μL was injected. To mitigate the instability of PPIs in aqueous solutions, the samples were kept at a temperature of 4 °C. Cooling the samples to 4 °C prevented significant decomposition for a period of 24 h. After 24 h, new samples were prepared for injection. Chromatographic parameters were calculated based on the following equations. The retention factor (k) was calculated as:(1) k=(tr−t0)/t0 where tr is the retention time of the investigated analyte, and t0 is the dead time, determined as the first peak appearance in the chromatogram. Resolution was calculated based on the following equation:(2) Rs=2(t2−t1)/(w1+w2) where t2 and t1 are the retention times of the second and first eluted enantiomers, respectively, while w is the peak width. The separation factor (α) was calculated as follows:(3) α=k2/k1 where k1 and k2 are the retention factors of the first- and second-eluting enantiomers, respectively. The k values were also used to calculate the protein-bound percentage (b%) using Equation (4):(4) b%=k/1+k×100
# [2] = system: α1-acid glycoprotein (AGP); assay: van 't Hoff thermodynamic analysis on AGP column; type: binding, human; details: Δ(ΔH°)/Δ(ΔS°)
# Method: The temperature effect was investigated at pH 7 and a 95:5 buffer:IPA eluents ratio, between 10 and 30 °C on both columns. […] The determination of thermodynamic parameters can provide valuable insights into the process of enantiodiscrimination, including its mechanistic aspects. The applied classical van ’t Hoff methodology postulates the existence of solely enantioselective interaction sites on the stationary phase. Nonetheless, it should be emphasized that a more realistic approach would encompass both enantioselective and non-enantioselective interactions. The isoenantioselective temperatures (Tiso) were calculated by dividing Δ(ΔH°) by Δ(ΔS°). At this temperature, enthalpy and entropy compensations negate each other, resulting in the coelution of the two enantiomers and no separation. […]
# In the equation, R represents the universal gas constant, T represents the absolute temperature in Kelvin, and k represents the retention factor of the enantiomers. ΔH° stands for the standard enthalpy, while ΔS° represents the standard entropy change of transfer of the solute from the mobile phase to the stationary phase. Φ is the phase ratio of the column. […] Similarly, the difference in the change of standard enthalpy, Δ(ΔH°), and standard entropy, Δ(ΔS°), for the two enantiomers was calculated as follows:(6) lnα=−ΔΔH°/RT+ΔΔS°/R
# BSA = details: racemic, ref [39]; cited from earlier work
# HSA [3] = molecular target: T1, HSA (Homo sapiens, UniProt P02768); details: ref [41]; cited from earlier work
# T1 construct: purchased Sigma-Aldrich
# HSA [4] = molecular target: T1, HSA; details: ref [42]; cited from earlier work
# [5] = extrapolation to zero percent EtOH
# [6] = extrapolation to zero percent IPA
# [7] = extrapolation to zero percent MeOH
# human serum albumin (HSA), sequence (P02768 25-609): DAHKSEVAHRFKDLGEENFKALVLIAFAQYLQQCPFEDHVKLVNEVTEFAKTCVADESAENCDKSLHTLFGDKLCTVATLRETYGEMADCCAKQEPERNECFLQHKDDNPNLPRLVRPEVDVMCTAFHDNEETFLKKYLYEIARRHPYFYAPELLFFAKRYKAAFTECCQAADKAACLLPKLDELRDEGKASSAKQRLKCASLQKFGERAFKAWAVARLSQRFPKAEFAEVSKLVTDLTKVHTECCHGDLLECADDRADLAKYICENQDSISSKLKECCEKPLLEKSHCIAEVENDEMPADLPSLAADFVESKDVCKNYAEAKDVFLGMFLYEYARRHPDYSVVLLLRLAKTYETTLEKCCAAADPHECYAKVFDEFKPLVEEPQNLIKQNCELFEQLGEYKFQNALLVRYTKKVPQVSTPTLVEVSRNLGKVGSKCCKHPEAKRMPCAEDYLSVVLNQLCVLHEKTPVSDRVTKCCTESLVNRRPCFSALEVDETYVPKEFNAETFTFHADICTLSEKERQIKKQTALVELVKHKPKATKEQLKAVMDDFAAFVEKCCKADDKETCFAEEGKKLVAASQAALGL
# T1 sequence (P02768 25-609): as above
Compound,"Bound percentage (b%), average [1]","Bound percentage (b%) [1, 5]","Bound percentage (b%) [1, 6]","Bound percentage (b%) [1, 7]",Tiso isoenantioselective temperature [2],logK (BSA),logK (HSA [3]),logK (HSA [4])
Cc1c(OCC(F)(F)F)ccnc1C[S@+]([O-])c1nc2ccccc2[nH]1 [S-lansoprazole],94.64% and 94.64 ± 0.89%,94.85%,93.67%,95.42%,–,–,–,–
"Cc1c(OCC(F)(F)F)ccnc1C[S+]([O-])c1nc2ccccc2[nH]1 (stereo not drawn) [Lansoprazole, lansoprazole]",–,–,–,–,−16.3 °C,–,–,–
"COc1ccc2[nH]c([S+]([O-])Cc3ncc(C)c(OC)c3C)nc2c1 (stereo not drawn) [Omeprazole, omeprazole]",–,–,–,–,–,4.58,4.61,–
"Cc1c(OCC(F)(F)F)ccnc1C[S@@+]([O-])c1nc2ccccc2[nH]1 [R-lansoprazole, dexlansoprazole]",92.45% and 92.45 ± 0.59%,92.69%,91.77%,92.89%,–,–,–,logK = 3.44 Binding to subdomain IIA
